Laboratory results reported in patent publication US9265837B1, “5α-androstane-3β,5,6β-triol injection and preparation method therefor” (Guangzhou Cellprotek Pharmaceuticals Ltd., priority 2010, dated 2016).

Key:
[1] = Acute toxicity (LD50), i.v. via tail vein, one-week observation; details: both sexes, mouse, in vivo, iv, Kunming mice, YC-6 injection of Example 3 (20 mg/ml)
Method: Kunming mice were caged by weight and randomly divided into 5 groups. Each group had 10 mice, with half males and half females. The YC-6 injection 10 prepared in Example 3 (20 mg/ml) was i.v. administrated via tail vein at different doses. All mice were sacrificed after one-week observation. The toxic reaction and number of death of the animals were recorded every day. LD50 and 95% confidence were calculated.

Solubility in water = format: physicochemical; details: background statement, no test described

For `C[C@@]12CCC[C@H]1[C@@H]1C[C@@H](O)[C@@]3(O)C[C@@H](O)CC[C@]3(C)[C@H]1CC2` [YC-6, 5α-androstane-3β,5,6β-triol], the LD50 at 1 week [1] was > 400 mg/kg and the Solubility in water (Solubility in water) was “low solubility in water”.
